Assay results as given in patent publication US20170014477A1, “FREE RAPTOR REDUCES AGING- AND OBESITY-INDUCED FATTY LIVER” (The Trustees of Columbia University in the City of New York, priority 2015, published 2017).
Values belong to the molecule of their own block, whether it stands above or below them.

What was measured:
PHLPP2 [1] = assay: PHLPP2 phosphorylation (Phos-tag mobility shift; IP and phospho-PKA substrate immunoblot) in hepatocytes; type: cell-based, mouse
Text: To investigate the effect of PKA on PHLPP2 phosphorylation in primary hepatocytes, either WT or S1119/1210A mutant of PHLPP2 was immunoprecipitated from cell extracts treated with glucagon or forskolin, and then subjected to immunoblot analysis with an antibody specific for phosphorylated PKA substrate proteins.

PHLPP2 [2] = assay: Western blot of PHLPP2 levels in primary hepatocytes / Hepa1c1c7 cells; type: cell-based, mouse; details: short- or long-term treatment, Rapamycin (20 nM), Torin1 (250 nM)
Text: The GFP, Raptor and PHLPP1/2 adenoviruses have been described (Miyamoto et al., 2010; Pajvani et al., 2013). The HA-Flag-PHLPP2 adenovirus was constructed by inserting a Flag sequence into HA-PHLPP2 vector (Addgene #22403, courtesy of Alexandra Newton) and adenoviruses encoding HA-Flag-PHLPP2 generated by Welgen, Inc. (Worcester, Mass.). Mouse shPhlpp1 or 2 target sequences were selected among three candidate sequences, respectively and adenoviruses encoding shPhlpp1 or 2 generated by Welgen, Inc. For in vivo studies, we injected […] or 2.5×10^8 purified viral particles per g body weight; we performed metabolic analysis on days 3-5 and euthanized the mice at day 8 or 10 after injection. Infection with adenovirus in primary hepatocytes or Hepa1c1c7 cells was performed at 2.5, 5, or 10 multiplicity of infection (MOI).
We isolated and cultured primary mouse hepatocytes as previously described (Kim et al., 2012). For inhibitor experiments, we treated hepatocytes with 20 nM rapamycin (Cell Signaling), 250 nM Torin1, or vehicle for either 1 h or 24 h.
Tissues and cells were lysed in 0.3% CHAPS lysis buffer (Kim et al., 2002) unless otherwise stated, and whole cell lysates obtained by centrifugation. […]

free Raptor = assay: DSS crosslinking assay for free Raptor in hepatocytes and hepatoma cells; type: cell-based, mouse
Method: Liver was lysed in 1% Triton X-100 lysis buffer (Kim et al., 2002) with or without 2.5 mg/ml DSP or DSS, and incubated for 2 h on ice. Crosslinking was quenched with 1 M Tris-HCl (pH 7.5) for 30 min on ice. For in vitro crosslinking assays, DSP or DSS were added to a final concentration of 1 mg/ml culture medium, and quenched by Tris-HCl as above. Equal protein (BCA assay, Thermo) was then subjected to Western blot, with or without IP.

[3] = biological target: T1, PH domain leucine-rich repeat protein phosphatase 2 (PHLPP2), endogenous (mouse, UniProt Q8BXA7 1-1320); assay: anti-PHLPP2 IP from primary hepatocytes and Hepa1c1c7 cells with or without MG-132, Western blot (FIG. 19i, FIG. 28j)
T1 construct: Endogenous protein, immunoprecipitated with anti-PHLPP2 or co-precipitated with anti-Akt; also called endogenous PHLPP2
T1 sequence (looked up): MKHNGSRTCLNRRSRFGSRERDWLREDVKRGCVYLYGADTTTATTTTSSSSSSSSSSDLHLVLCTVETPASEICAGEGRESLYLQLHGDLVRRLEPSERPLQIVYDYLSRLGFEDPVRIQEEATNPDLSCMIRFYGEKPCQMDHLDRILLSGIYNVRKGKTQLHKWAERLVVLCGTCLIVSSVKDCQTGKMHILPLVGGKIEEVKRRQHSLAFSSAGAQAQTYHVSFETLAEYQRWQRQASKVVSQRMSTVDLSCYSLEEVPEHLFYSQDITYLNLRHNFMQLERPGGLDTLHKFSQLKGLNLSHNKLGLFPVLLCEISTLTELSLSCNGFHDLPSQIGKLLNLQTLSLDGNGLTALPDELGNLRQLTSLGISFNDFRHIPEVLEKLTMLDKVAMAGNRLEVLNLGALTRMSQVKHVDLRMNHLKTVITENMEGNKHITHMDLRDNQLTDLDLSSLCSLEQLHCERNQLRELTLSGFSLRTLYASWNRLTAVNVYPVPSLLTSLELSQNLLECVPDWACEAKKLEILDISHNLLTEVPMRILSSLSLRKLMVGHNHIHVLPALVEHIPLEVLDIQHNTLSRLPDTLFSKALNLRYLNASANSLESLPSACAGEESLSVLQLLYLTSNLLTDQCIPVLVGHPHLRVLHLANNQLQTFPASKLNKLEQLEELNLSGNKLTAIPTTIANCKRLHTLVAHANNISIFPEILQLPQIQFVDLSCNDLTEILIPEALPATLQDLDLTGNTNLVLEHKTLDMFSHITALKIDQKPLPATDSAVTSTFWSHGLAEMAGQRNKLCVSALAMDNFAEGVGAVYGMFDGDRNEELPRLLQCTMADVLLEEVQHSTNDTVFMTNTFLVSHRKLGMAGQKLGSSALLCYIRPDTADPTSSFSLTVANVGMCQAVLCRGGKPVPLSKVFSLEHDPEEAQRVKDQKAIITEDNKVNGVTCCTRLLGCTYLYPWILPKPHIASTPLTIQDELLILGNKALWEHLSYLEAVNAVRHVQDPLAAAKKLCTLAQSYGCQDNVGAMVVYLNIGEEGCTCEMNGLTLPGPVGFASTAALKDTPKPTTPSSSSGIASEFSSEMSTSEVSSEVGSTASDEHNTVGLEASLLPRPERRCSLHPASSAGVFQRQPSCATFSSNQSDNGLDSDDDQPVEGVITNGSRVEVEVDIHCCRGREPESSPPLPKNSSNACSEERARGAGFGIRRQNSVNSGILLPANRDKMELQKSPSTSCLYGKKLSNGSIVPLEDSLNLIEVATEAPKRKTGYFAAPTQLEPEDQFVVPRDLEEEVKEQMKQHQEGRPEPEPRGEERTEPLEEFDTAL

Molecule: O=S(=O)(NCCNC/C=C/c1ccc(Br)cc1)c1cccc2cnccc12 [H89]
forskolin-mediated PHLPP2 phosphorylation (PHLPP2 [1]; pretreatment with PKA inhibitor): reduced

Molecule: CCC(=O)N1CCN(c2ccc(-n3c(=O)ccc4cnc5ccc(-c6cnc7ccccc7c6)cc5c43)cc2C(F)(F)F)CC1 [Torin1]
decrease of basal or Raptor-increased PHLPP2 levels (PHLPP2 [2]): neither

Molecule: glucagon
PKA-mediated phosphorylation of WT PHLPP2 (PHLPP2 [1]; primary hepatocytes, IP, phosphorylated PKA substrate antibody, not S1119A/S1210A mutant): robustly increased

Molecule: insulin
free Raptor levels (free Raptor; brief exposure): ineffectual
free Raptor levels (free Raptor; prolonged high-dose treatment to induce insulin resistance, primary hepatocytes or Hepa1c1c7 cells): reduced

binding result [3]: binds
B1: β-TrCP (beta-transducin repeat-containing protein) (other, mouse, UniProt Q3ULA2 1-605, looked up)
chain: MDPAEAVLQEKALKFMCSMPRSLWLGCSSLADSMPSLRCLYNPGTGALTAFQNSSEREDCNNGEPPRKIIPEKNSLRQTYNSCARLCINQETVCLTSTAMKTENCVAKAKLANGTSSMIVPKQRKLSASYEKEKELCVKYFEQWSESDQVEFVEHLISQMCHYQHGHINSYLKPMLQRDFITALPARGLDHIAENILSYLDAKSLCAAELVCKEWYRVTSDGMLWKKLIERMVRTDSLWRGLAERRGWGQYLFKNKPPDENAPPNSFYRALYPKIIQDIETIESNWRCGRHSLQRIHCRSETSKGVYCLQYDDQKIVSGLRDNTIKIWDKSTLECKRILTGHTGSVLCLQYDERVIITGSSDSTVRVWDVNAGEMLNTLIHHCEAVLHLRFNNGMMVTCSKDRSIAVWDMASPTDITLRRVLVGHRAAVNVVDFDDKYIVSASGDRTIKVWNTSTCEFVRTLNGHKRGIACLQYRDRLVVSGSSDNTIRLWDIECGACLRVLEGHEELVRCIRFDNKRIVSGAYDGKIKVWDLMAALDPRAPAGTLCLRTLVEHSGRVFRLQFDEFQIVSSSHDDTILIWDFLNDPAAHAEPPRSPSRTYTYISR
notes: E3 ligase substrate recognition subunit of the SCF complex; endogenous protein in mouse cells
